Experimental data as given in ChEMBL document CHEMBL1129223, “1-Oxo-3-aryl-1H-indene-2-carboxylic acid derivatives as selective inhibitors of fibroblast growth factor receptor-1 tyrosine kinase” (Bioorg Med Chem Lett, 1997).

Assays:
[1] = target: T1, Fibroblast growth factor receptor (Homo sapiens, UniProt P22607+P11362+P22455+P21802); test: Inhibitory activity against fibroblast growth factor receptor (FGFr); assay type: protein assay
[2] = target: Platelet-derived growth factor receptor (Homo sapiens) (UniProt P09619+P16234); test: Inhibitory activity against platelet-derived growth factor receptor (PDGFr) at 50 uM
[3] = target: T2, Proto-oncogene tyrosine-protein kinase Src (Homo sapiens, UniProt P12931); test: Inhibitory activity against c-src tyrosine kinase
[4] = target: T2, Proto-oncogene tyrosine-protein kinase Src; test: Inhibitory activity against c-src tyrosine kinase at 50 uM
[5] = target: T1, Fibroblast growth factor receptor; test: Inhibitory activity against fibroblast growth factor receptor (FGFr) at 50 uM; assay type: protein assay

T2 sequence (P12931 2-536 limits assumed): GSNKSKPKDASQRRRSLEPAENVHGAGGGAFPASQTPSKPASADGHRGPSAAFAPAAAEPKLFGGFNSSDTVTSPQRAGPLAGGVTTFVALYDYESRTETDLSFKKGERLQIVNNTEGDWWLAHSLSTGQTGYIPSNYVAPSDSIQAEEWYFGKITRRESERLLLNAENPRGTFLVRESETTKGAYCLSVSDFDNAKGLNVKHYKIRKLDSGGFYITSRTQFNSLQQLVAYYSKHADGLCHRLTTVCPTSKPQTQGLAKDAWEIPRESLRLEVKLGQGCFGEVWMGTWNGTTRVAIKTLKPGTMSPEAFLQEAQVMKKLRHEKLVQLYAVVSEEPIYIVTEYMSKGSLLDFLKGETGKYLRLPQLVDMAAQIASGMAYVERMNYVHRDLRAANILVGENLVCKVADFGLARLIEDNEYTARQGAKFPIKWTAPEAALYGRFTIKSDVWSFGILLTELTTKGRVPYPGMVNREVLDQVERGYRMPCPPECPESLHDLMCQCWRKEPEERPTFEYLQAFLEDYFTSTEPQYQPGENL
T1 sequence (P11362 whole entry, looked up): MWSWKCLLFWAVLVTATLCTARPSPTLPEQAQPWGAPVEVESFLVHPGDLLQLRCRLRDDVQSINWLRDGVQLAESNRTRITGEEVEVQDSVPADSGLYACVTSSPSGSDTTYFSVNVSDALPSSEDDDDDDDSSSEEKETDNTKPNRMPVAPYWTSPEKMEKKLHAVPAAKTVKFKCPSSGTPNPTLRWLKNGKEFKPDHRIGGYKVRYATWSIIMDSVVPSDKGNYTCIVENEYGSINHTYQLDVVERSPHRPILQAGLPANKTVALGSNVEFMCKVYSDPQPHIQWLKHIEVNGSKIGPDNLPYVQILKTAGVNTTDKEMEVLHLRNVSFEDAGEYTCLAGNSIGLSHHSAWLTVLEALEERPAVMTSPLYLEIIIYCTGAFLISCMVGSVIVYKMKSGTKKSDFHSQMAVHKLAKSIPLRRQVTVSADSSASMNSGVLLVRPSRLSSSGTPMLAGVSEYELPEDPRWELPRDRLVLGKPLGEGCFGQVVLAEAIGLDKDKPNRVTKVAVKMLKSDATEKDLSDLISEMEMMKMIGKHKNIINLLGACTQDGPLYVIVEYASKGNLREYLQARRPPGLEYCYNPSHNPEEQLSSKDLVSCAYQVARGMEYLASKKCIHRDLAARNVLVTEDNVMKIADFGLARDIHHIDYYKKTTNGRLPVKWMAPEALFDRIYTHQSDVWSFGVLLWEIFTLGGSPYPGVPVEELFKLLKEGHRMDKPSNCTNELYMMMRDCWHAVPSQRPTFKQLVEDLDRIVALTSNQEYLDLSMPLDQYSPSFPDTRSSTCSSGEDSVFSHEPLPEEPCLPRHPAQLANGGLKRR
T1 sequence (P21802 whole entry, looked up): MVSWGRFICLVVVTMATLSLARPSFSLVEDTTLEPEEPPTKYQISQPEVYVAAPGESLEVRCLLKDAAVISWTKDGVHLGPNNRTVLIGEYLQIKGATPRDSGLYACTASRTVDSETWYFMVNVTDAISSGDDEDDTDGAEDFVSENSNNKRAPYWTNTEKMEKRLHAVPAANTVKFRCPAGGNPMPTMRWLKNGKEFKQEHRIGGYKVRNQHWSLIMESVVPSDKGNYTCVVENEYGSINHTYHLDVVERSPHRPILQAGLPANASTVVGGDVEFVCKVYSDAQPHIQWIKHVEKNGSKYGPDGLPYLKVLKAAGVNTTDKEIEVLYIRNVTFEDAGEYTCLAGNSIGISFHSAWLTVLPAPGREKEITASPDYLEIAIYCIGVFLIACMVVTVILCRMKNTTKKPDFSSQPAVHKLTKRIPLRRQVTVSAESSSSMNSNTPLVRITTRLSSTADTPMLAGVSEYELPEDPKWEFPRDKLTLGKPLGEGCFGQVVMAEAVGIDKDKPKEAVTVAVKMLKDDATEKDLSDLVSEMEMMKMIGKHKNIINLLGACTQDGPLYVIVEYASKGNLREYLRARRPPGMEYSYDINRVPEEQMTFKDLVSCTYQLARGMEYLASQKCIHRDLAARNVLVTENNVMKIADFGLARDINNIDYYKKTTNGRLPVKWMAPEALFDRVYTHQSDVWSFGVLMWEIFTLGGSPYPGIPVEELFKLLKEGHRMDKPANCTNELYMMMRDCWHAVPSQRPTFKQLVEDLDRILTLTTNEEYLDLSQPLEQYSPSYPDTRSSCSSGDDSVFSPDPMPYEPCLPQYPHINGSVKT
T1 sequence (P22455 whole entry, looked up): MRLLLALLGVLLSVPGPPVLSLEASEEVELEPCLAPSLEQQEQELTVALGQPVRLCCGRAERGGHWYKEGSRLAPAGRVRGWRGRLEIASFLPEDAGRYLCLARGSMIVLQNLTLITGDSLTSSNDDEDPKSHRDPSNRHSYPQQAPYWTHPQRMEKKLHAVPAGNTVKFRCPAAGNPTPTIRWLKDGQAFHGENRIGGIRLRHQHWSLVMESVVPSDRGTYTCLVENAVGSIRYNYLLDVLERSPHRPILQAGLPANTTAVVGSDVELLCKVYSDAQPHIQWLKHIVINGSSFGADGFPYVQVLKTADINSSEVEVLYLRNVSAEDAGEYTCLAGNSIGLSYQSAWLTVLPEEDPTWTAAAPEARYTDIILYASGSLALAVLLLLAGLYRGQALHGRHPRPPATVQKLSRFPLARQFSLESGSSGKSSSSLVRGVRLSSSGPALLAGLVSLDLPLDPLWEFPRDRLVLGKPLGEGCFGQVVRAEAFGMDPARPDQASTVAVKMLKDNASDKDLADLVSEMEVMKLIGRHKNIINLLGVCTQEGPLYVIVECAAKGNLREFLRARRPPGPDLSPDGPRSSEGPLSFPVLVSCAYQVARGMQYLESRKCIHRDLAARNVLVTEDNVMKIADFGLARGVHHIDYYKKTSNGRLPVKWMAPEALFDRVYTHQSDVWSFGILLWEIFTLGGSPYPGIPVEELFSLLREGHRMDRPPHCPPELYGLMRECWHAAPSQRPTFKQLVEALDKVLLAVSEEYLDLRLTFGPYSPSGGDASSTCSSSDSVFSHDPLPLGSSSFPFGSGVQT
T1 sequence (P22607 whole entry, looked up): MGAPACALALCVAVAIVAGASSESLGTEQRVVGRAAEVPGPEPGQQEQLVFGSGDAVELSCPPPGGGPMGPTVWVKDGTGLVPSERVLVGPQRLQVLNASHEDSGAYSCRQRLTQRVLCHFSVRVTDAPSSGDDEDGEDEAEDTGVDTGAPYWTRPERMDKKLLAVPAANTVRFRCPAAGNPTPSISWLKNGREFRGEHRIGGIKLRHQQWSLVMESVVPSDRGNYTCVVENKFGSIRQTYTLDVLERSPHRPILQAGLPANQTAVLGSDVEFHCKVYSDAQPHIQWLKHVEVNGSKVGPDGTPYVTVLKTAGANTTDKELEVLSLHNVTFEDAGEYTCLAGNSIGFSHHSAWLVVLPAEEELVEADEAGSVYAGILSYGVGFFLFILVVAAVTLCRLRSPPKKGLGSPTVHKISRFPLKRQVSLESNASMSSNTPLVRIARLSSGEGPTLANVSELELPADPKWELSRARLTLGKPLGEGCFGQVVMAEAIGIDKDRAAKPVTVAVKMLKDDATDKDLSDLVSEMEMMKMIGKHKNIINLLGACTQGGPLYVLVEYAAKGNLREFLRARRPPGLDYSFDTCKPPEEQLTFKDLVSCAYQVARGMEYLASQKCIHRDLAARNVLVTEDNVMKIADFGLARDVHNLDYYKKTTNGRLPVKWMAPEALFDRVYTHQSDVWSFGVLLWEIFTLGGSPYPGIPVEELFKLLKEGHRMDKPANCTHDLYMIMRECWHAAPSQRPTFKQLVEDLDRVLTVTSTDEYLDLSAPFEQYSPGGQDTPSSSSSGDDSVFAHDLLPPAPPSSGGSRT

Row | Compound | IC50 [1] [µM] | inhibition [2] [%] | IC50 [3] [µM] | inhibition [4] [%] | inhibition [5] [%]
1 | NC(=O)C1=C(c2ccccc2)c2ccccc2C1=O | 4.7 | 25 | 3.6 |  | 
2 | COC(=O)C1=C(c2ccccc2)c2cc(Cl)ccc2C1=O.COC(=O)C1=C(c2ccccc2)c2ccc(Cl)cc2C1=O | 6.2 | 25 |  | 10 | 
3 | NC(=O)C1=C(c2ccccc2)c2ccccc2C1O (configuration not stated) |  | 10 |  | 27 | 29
4 | COC(=O)C1=C(c2ccccc2)c2c(OC)cccc2C1=O | 15 | 19 | 13 |  | 
5 | COC(=O)C1=C(c2ccccc2)c2cc([N+](=O)[O-])ccc2C1=O.COC(=O)C1=C(c2ccccc2)c2ccc([N+](=O)[O-])cc2C1=O | 10 | 19 | 8.3 |  | 
6 | COc1ccc(C2=C(C(N)=O)C(=O)c3ccccc32)cc1 | 10.6 | 23 | 4 |  | 
7 | COC(=O)C1=C(c2ccccc2)c2ccncc2C1=O | 6.8 | 27 | 7.6 |  | 
8 | NC(=O)C1C(=O)c2ccccc2C1c1ccccc1 (configuration not stated) |  | 16 |  | 8 | 23
9 | COC(=O)C1=C(c2ccccc2)c2cccc(C)c2C1=O | 44 | 11 |  | 38 | 
10 | NC(=O)C1=C2CCCc3cccc(c32)C1=O | 4.2 | 25 |  | 48 | 
11 | CCC1=C(C(N)=O)C(=O)c2ccccc21 | 9.2 | 8.7 |  | 53 | 
12 | COC(=O)C1=C(c2ccccc2)c2ccccc2C1=O | 5.1 | 19 | 25 |  | 
13 | O=C(O)C1=C(c2ccccc2)c2ccccc2C1=O | 25 | 9 |  | 7 | 
14 | CN(C)C(=O)C1=C(c2ccccc2)c2ccccc2C1=O |  | 10 |  | 1 | 10
15 | CNC(=O)C1=C(c2ccccc2)c2ccccc2C1=O | 21 | 24 |  | 16 | 
16 | NC(=O)C1=C(c2ccc(Cl)cc2)c2ccccc2C1=O | 5.4 | 27 | 9.6 |  | 
17 | CCN(CC)CCNC(=O)C1=C(c2ccccc2)c2ccccc2C1=O |  | 8 |  | 11 | 21
18 | COC(=O)C1=C(c2ccccc2)c2cc(C)ccc2C1=O.COC(=O)C1=C(c2ccccc2)c2ccc(C)cc2C1=O | 6.4 | 20 | 33 |  | 
19 | C/C=C1\c2ccccc2C(=O)C1C(N)=O (configuration not stated) |  | 8 |  | 3 | 26
